Series [1] can be described thus: Cytotoxicity against human PC3 cells after 48 hrs by SRB assay. The class given is functional, cell-based. The note with it: PC-3, 48 h. (In SRB staining, fixed cells bind dye roughly in proportion to their protein.)
Series [2] relates to A549. As to the kind of experiment: Induction of apoptosis in human A549 cells assessed as loss of membrane potential at 1 uM after 24 hrs using Rhodamine-123 by flow cytometric analysis (Rvb =12.1 %). It is filed as functional. (In general: A flow cytometer gives signals particle by particle.)
Series [3] concerns A549. As to the kind of experiment: Induction of apoptosis in human A549 cells assessed as caspase 3 activation at 1 uM after 12 hrs […] by colorimetry relative to control. The class given is functional, cell-based.
Series [4] deals with A549. As to the kind of experiment: Induction of apoptosis in human A549 cells assessed as increase in intracellular ROS at 1 uM after 24 hrs using DCFH-DA by spectrofluorimetry relative to control. The class given is functional, cell-based.
For a further series, the system named is THP-1. The experiment in a line: Cytotoxicity against human THP1 cells after 48 hrs by SRB assay. The class given is functional, cell-based. Conditions: THP-1, 48 h.
The test system of another series is MCF7. The experiment in a line: Cytotoxicity against human MCF7 cells after 48 hrs by SRB assay. The class given is functional, cell-based. Conditions: MCF7, 48 h.
For series [5], the system named is A549. The experiment in a line: Induction of apoptosis in human A549 cells assessed as caspase 9 activation at 1 uM after 12 hrs […] by colorimetry relative to control. The class given is functional, cell-based.
Series [6] concerns A549. The experiment in a line: Induction of apoptosis in human A549 cells assessed as increase in hypodiploid sub-G1 DNA fraction at 1 uM after 24 hrs by propidium iodide-based flow cytometric analysis (reference value: 3 %). It is filed as functional.
In series [7] the test system is A549. The experiment in a line: Cytotoxicity against human A549 cells after 48 hrs by SRB assay. Conditions: A549, 48 h. The class given is functional, cell-based.
The subject of series [8] is A549. The experiment in a line: Induction of apoptosis in human A549 cells assessed as increase in hypodiploid sub-G1 DNA fraction at 10 uM after 24 hrs by propidium iodide-based flow cytometric analysis (reference value: 3 %). It is filed as functional.
Series [9] concerns CHO. As to the kind of experiment: Cytotoxicity against CHO cells assessed as change in LDH at 1 uM after 48 hrs by LDH colorimetric assay relative to control. Conditions: chinese hamster. It is filed as cell-based, Cricetulus griseus.
Series [10] deals with CHO. The experiment in a line: Cytotoxicity against CHO cells assessed as change in LDH at 20 uM after 48 hrs by LDH colorimetric assay relative to control. The class given is cell-based, Cricetulus griseus. The note with it: chinese hamster.
In series [11] the test system is A549. The experiment in a line: Induction of apoptosis in human A549 cells assessed as increase in hypodiploid sub-G1 DNA fraction at 2 uM after 24 hrs by propidium iodide-based flow cytometric analysis (reference value: 3 %). It is filed as functional.
For series [12], the system named is CHO. As to the kind of experiment: Cytotoxicity against CHO cells assessed as change in LDH at 10 to 100 uM after 48 hrs by LDH colorimetric assay relative to control. The class given is cell-based, Cricetulus griseus. The note with it: chinese hamster.
Series [13] relates to A549. The experiment in a line: Induction of apoptosis in human A549 cells assessed as loss of membrane potential at 2 uM after 24 hrs using Rhodamine-123 by flow cytometric analysis (Rvb =12.1 %). It is filed as functional.

Structures can show the parent of a compound that is named as a salt. The source made the active and inactive calls. No cut-off for these calls is given here.

By IC50 is commonly meant the concentration needed to halve the response being measured. A lower IC50 goes with inhibition by little substance. For `COc1ccc(/C=C/[C@@]23C=CC4(OO2)C(C)(C)CCC[C@]4(C)O3)cc1OC` (mixture of isomers), the concentration for half-maximal inhibition (IC50) in series [1] is > 100 µM; in the series on THP-1, 11 µM; with MCF7, 10 µM; in the series with A549 [7], 12 µM. Besides, the Activity in the series with A549 [2] is listed as 99.7%; in the series with A549 [6], 67.9%; with A549 [8], 69.8%. Further, the outcome in the series with A549 [3], in the series with A549 [4] and with A549 [5] was Active.

On to `CC1(C)CCC[C@]2(C)O[C@]3(/C=C/c4ccccc4Br)C=CC12OO3` (mixture of isomers), for which the IC50 was > 100 µM in series [1], 0.1 µM in the series with THP-1, 1.3 µM in the series on MCF7 and 2 µM in the series with A549 [7]. Also, the Activity in the series with A549 [2] was 99.8%; in the series with A549 [6] it was 44.9%; in the series with A549 [8] it was 78.2%. Further, the result in the series on A549 [3], in the series on A549 [4] and in the series with A549 [5] was Active.

Consider `CC1(C)CCC[C@]2(C)O[C@]3(/C=C/c4cccc5ccccc45)C=CC12OO3` (mixture of isomers), for which the IC50 in [1] was > 100 µM; with THP-1 it was 7.4 µM; in the series with MCF7, 0.7 µM; in the series with A549 [7], 0.02 µM. The Activity in the series with A549 [2] was 99.8%; in the series on A549 [6], 66.8%; with A549 [8], 80.3%. Also, the result with A549 [3], with A549 [4] and in the series on A549 [5] was Active.

As for `CC1(C)CCC[C@]2(C)O[C@]3(/C=C/c4ccccc4Cl)C=CC12OO3` (mixture of isomers), the IC50 in series [1] came to 13 µM; with THP-1 it was 3.5 µM; with MCF7, 1 µM; in the series with A549 [7], 0.9 µM. The values for the Activity in the series with A549 [2], in the series on A549 [6] and with A549 [8] were 99.7%, 16.9% and 61%, respectively. The outcome in the series on A549 [3], in the series on A549 [4] and in the series on A549 [5] was Active.

`COc1cccc2c1C(=O)c1c(O)c3c(c(O)c1C2=O)C[C@@](O)(C(=O)CO)C[C@@H]3O[C@H]1C[C@H](N)[C@H](O)[C@H](C)O1` [DOXORUBICIN HYDROCHLORIDE]: the half-maximal inhibitory concentration (IC50) with A549 [7] was 0.1 µM.

As for `CC1(C)CCC[C@]2(C)O[C@]3(/C=C/c4ccccc4[N+](=O)[O-])C=CC12OO3` (mixture of isomers), the concentration for half-maximal inhibition (IC50) is > 100 µM in series [1], 2.8 µM in the series on THP-1, 7.7 µM with MCF7 and 0.001 µM with A549 [7]. The Activity was 99.7% in the series with A549 [2]; 108% in the series with CHO [9]; 74.8% with A549 [6]; 135% with CHO [10]; 76% in the series on A549 [8]. The result with A549 [3], with A549 [4] and in the series on A549 [5] was Active.

On to `CC[C@@]1(O)C(=O)OCc2c1cc1n(c2=O)Cc2cc3ccccc3nc2-1` [CAMPTOTHECIN], for which the values for the Activity in the series on A549 [11], in the series with CHO [12] and with A549 [13] were 49%, 126% and 96.1%, respectively.

As to `CC1(C)CCC[C@]2(C)O[C@]3(/C=C/c4ccccc4F)C=CC12OO3` (mixture of isomers), the IC50 was > 100 µM in series [1], 0.4 µM with THP-1, 0.1 µM in the series with MCF7 and 0.003 µM with A549 [7]. The Activity was found to be 99.8% with A549 [2], 60.7% in the series with A549 [6] and 74.8% in the series on A549 [8]. For the same molecule, the outcome in the series with A549 [3], in the series on A549 [4] and in the series on A549 [5] was Active.

As for `COc1ccccc1/C=C/[C@@]12C=CC3(OO1)C(C)(C)CCC[C@]3(C)O2` (mixture of isomers), the IC50 is > 100 µM in [1], 13 µM in the series with THP-1, 11 µM in the series with MCF7 and 6.5 µM in the series on A549 [7]. Moreover, the Activity with A549 [2] is given as 99.8%; with A549 [6], 68.2%; in the series on A549 [8] it was 83%. Further, the outcome in the series with A549 [3], with A549 [4] and in the series with A549 [5] was Active.

On to `CC1(C)CCC[C@]2(C)O[C@]3(/C=C/c4ccc(Cl)c(Cl)c4)C=CC12OO3` (mixture of isomers), for which the IC50 in [1] worked out at 21 µM; in the series with THP-1, 0.2 µM; in the series with MCF7, 4.2 µM; in the series on A549 [7], 4.1 µM. In addition, the Activity was 63% with A549 [2], 48.2% in the series with A549 [6] and 71.7% in the series with A549 [8]. The outcome in the series with A549 [3], with A549 [4] and in the series on A549 [5] was Active.

For the molecule `CO[C@@]12[C@H](COC(N)=O)C3=C(C(=O)C(C)=C(N)C3=O)N1C[C@@H]1N[C@@H]12` [MITOMYCIN], the IC50 in the series with THP-1 stood at 0.1 µM; with MCF7 it was 0.2 µM; in the series on A549 [7], 0.04 µM.

`Cc1ccccc1/C=C/[C@@]12C=CC3(OO1)C(C)(C)CCC[C@]3(C)O2` (mixture of isomers): the concentration for half-maximal inhibition (IC50) was 20 µM in [1], 4 µM in the series with THP-1, 0.01 µM in the series with MCF7 and 4.3 µM in the series with A549 [7]. The values for the Activity in the series with A549 [2], in the series with A549 [6] and in the series on A549 [8] were 50.5%, 67% and 69.8%, respectively. Also, the outcome in the series on A549 [3], in the series with A549 [4] and with A549 [5] was Active.

Take `COc1ccc(/C=C/[C@@]23C=CC4(OO2)C(C)(C)CCC[C@]4(C)O3)c(OC)c1OC` (mixture of isomers): the half-maximal inhibitory concentration (IC50) in [1] was > 100 µM; in the series on THP-1 it was 25 µM; in the series with MCF7 it was 18 µM; in the series with A549 [7] it was 7 µM. Moreover, the Activity is on record as 91.7% in the series with A549 [2], 60.4% in the series on A549 [6] and 74.7% with A549 [8]. The result in the series on A549 [3], in the series with A549 [4] and in the series with A549 [5] was Active.

As for `O=c1[nH]cc(F)c(=O)[nH]1` [FLUOROURACIL], it took 0.04 µM to reach half-maximal inhibition with THP-1 (IC50).

Source of the values: ChEMBL document CHEMBL3351287, “β-Ionone derived apoptosis inducing endoperoxides; Discovery of potent leads for anticancer agents” (Eur J Med Chem, 2014).
